Reference: patent US20190111040A1, “IN VIVO AMELIORATION OF ENDOGENOUS ANTI-TUMOR AUTOANTIBODIES TARGETING SURFACE TUMOR ANTIGENS VIA LOW-DOSE P4N” (THE JOHNS HOPKINS UNIVERSITY, priority 2016, published 2019)
Counter-ions that a name gives are not always drawn.

Key:
CT26 tumors [1] = assay: P4N treatments in vivo, CT-26 tumors in BALB/c mice; details: one intratumoral injection of 2.5 mg/kg or 5 mg/kg
Method: P4N treatments in vivo. BALB/c or BALB/c/nu mice (6 week old) were inoculated subcutaneously with 1×10^6 CT-26 cells in 100 μl PBS. When the average tumor mass reached 50 mm^3, the animals were treated with 2.5 mg/kg or 5 mg/kg of P4N in one intratumoral injection. Subsequently, the tumor volumes were measured using a caliper every 2 days, and the volumes were calculated using the following formula: volume (mm^3)=length×width×height. Before sacrifice, the sera of the mice were collected for experimental use.

CT26 tumors [2] = assay: Immunohistochemical staining of tumors after P4N; type: in vivo, mice
Description: Immunohistochemical staining. Tumors isolated from P4N and vehicle-treated mice were embedded in paraffin and thin sections were made and processed for immunohistochemical staining. The sections were probed with rat monoclonal anti-F4/80 (1:50 dilution; GeneTex, Irvine, Calif.) and anti-CD20 (1:200 dilution; Santa Cruz Biotechnology, Dallas, Tex.), hamster monoclonal anti-CD11c (1:25 dilution; GeneTex), rabbit monoclonal anti-CD3 (1:50 dilution; GeneTex), rabbit polyclonal anti-TNF-α and anti-IL-8 antibody (1:50 dilution; Assay BioTech. Sunnyvale, Calif.) at 4° C. overnight, and the detection antibodies were recognized using a horseradish peroxidase (HRP)-conjugated anti-rat, anti-hamster, or anti-rabbit IgG antibody (1/1,500 dilution; Santa Cruz Biotechnology). The immune complexes in the sections were visualized using the LSAB2 system (DAKO, Carpinteria, Calif.). The sections were counterstained with hematoxylin, mounted, observed under a light microscope at a magnification of 400×, and photographed.

CT-26 cells = assay: Binding of anti-sera to CT-26 tumor tissue and cell surface antigens; design: species or system mouse; details: flow cytometry, FIG. 15
Method: FIG. 15 is a graph showing the affinities of anti-sera against CT-26 cells after different lengths of incubation. Tumor antigens on the surface of CT26 cells were indirectly probed with P4N and PBS anti-sera and FITC-conjugated goat anti-mouse IgG antibody. The specific fluorescent activities were measured by flow cytometry.
Sections of CT-26 tumors from untreated mice were incubated with a 200-fold dilution of normal sera, PBS anti-sera or P4N anti-sera at 4° C. overnight. Sequentially, the sections were recognized using an HRP-conjugated anti-mouse IgG antibody (1:1500 dilution; Santa Cruz Biotechnology), and then developed, counterstained and photographed as described above.
Immunofluorescence analysis of cell surface tumor antigens. CT-26 cells were seeded on glass cover slides, and fixed with 4% (w/w) paraformaldehyde The fixed cells were then incubated with normal sera, PBS anti-sera or P4N anti-sera for 1 h and detected with secondary antibodies conjugated to Alexa Fluor 568 (Molecular Probes, Eugene, USA). Alexa Fluor 488-conjugated Concanavalin A (ConA; Molecular Probes) and DAPI (Molecular Probes) were used to label the plasma membrane and nucleus. The images of tumor antigens recognized by the anti-sera were photographed at a 400× magnification using a Zeiss LSM 510 META confocal microscope (Carl Zeiss, Jena, Germany).

Human B or T cells = assay: Proliferation of isolated human B or T cells, MTT assay; type: cell-based
Method: FIG. 10 depicts the effects of P4N on cell proliferation. Human B or T cells were isolated from the PBMCs by negative selection using a magnetic sorting device (Miltenyi Biotec, Auburn, Calif.). Cell proliferation was determined by an MTT assay.
Total B-cells were isolated from human PBMCs or mouse splenocytes by negative selection using a magnetic sorting device (Miltenyi Biotec, Auburn, Calif.). Briefly, PBMCs were incubated with a cocktail of biotin-conjugated antibodies, followed by microbead-conjugated anti-biotin Abs for magnetic depletion. B-cells were eluted according to the manufacturer's protocols. Human blood samples were collected from healthy individuals following an IRB-approved protocol and in agreement with the Committee for Research Ethics Board of Chung Shan Medical University Hospital.

THP-1 cells = assay: Gene expression profiling of P4N treated THP-1 cells, cDNA microarray; type: cell-based; details: THP-1 cells following P4N treatment
Method: Gene expression profiling and analysis. Amplification and labeling of RNA was performed with the Illumina®TotalPrep RNA Amplification Kit from Life Technologies (Ambion, Applied Biosystems, Foster City, Calif.) using 150 ng of RNA per sample. Labeled RNA (750 ng) was hybridized to Illumina HT-12 v4 Expression BeadChips (˜48,000 probes) and processed according to the manufacturer's protocol. Expression data underwent quality control and normalization by GenomeStudio (Illumina, San Diego, Calif.). Genes differentially expressed in the cells treated with P4N relative to the untreated cells were identified, with special emphasis given to genes involved in cytokine-cytokine receptor interaction (KEGG pathway). […] The identified genes were subjected to the Database for Annotation, Visualization and Integrated Discovery (DAVID) (david.abcc.ncifcrf.gov/) for Gene Ontology (GO) and KEGG pathway enrichment analysis. A P-value <0.05 was set as threshold of enrichment analysis.

Raji or OKT3 cells = assay: Cell proliferation assay with THP-1-conditioned media; type: cell-based; details: conditioned medium from THP-1 cells treated with P4N, 48 h, MTT
Method: FIGS. 5A-5F depict the expression of Activin A/BAFF induced by P4N treatments. (A) P4N induced Activin A or BAFF expression in human PBMCs as determined by RT-PCR. S1-S5 display different individual blood samples collected from 5 different human donors; N, no treatment; P, P4N-treatment (3 μM). The change in Activin A and BAFF expression (mean of 5 patients) relative to the control (NC) is plotted as a histogram (B) The effect of increasing dosages of P4N for 12 h on mRNA and protein levels of Activin A or BAFF in THP-1 cells was analyzed by RT-PCR and ELISA. (C) The effect of 6 μM P4N on mRNA and protein levels of Activin A or BAFF in THP-1 cells was determined at a different time period. (D) The effect of different inhibitors on Activin A-induced BAFF expression was examined. The expression of BAFF mRNA in inhibitor-treated THP-1 cells was determined by RT-PCR, and (E) BAFF protein secretion was measured by ELISA. (F) The effect of THP-1 conditioned media on the proliferation of Raji cells and OKT3 hybridoma cells were determined. Media were harvested, in which THP-1 cells were pre-treated without inhibitor (2) or with SB431542 (3), A83-01 (4), SIS3 (5), SB203580 (6) or PD98059 (7) and then treated with P4N for 12 h. The results are expressed as % viable cells relative to the control (NC, media from untreated THP-1 cells). All values are the means of triplicate samples±SEM. The significant differences in the results of inhibitor and P4N-treated groups compared with the untreated group are indicated by ***P<0.001.
Cell proliferation assay. Raji or OKT3 cells (1×10^4/well) were seeded and treated with THP-1-conditioned media. After 48 h the number of viable cells was determined by MTT assay. The indices of cell proliferation were calculated as previously described.

SMILES: C[C@H](Cc1ccc(OCCN2CCCCC2)c(OCCN2CCCCC2)c1)[C@@H](C)Cc1ccc(OCCN2CCCCC2)c(OCCN2CCCCC2)c1 [P4N, meso-2,3-dimethyl-1,4-bis(3,4-[2-(piperidino)ethoxyphenyl])butane tetrakishydrochloride salt]
- growth of CT26 tumors (CT26 tumors [1]): significantly inhibited
- expression levels of TNF-α and IL-8 in tumors (CT26 tumors [2]; 5 mg/kg intratumoral, day 7, both strains of mice): enhanced the expression levels
- infiltration of immune cells (macrophages, DC, T or B cells) into the tumor area (CT26 tumors [2]; single intratumoral injection 5 mg/kg, day 7, IHC): led to the infiltration of immune cells
- binding affinities of EAA (CT-26 cells): enhanced their binding affinities
- proliferation of T-cell-depleted PBMCs (Human B or T cells): increased the proliferation
- proliferation of isolated T cells or B cells (Human B or T cells): did not induce the proliferation
- up-regulated genes of cytokine-cytokine interaction (KEGG pathway) (THP-1 cells): 26
- up-regulated genes of growth factor activity (GO: 0008083) (THP-1 cells): 10
- proliferation of Raji or OKT3 cells (Raji or OKT3 cells): increased the proliferation
